Counter-ions that a name gives are not always drawn.
Experiments:
P. falciparum D6 = experiment: In vitro antimalarial activity, 3H-hypoxanthine growth inhibition assay, D6 line; assay type: cell-based, Plasmodium falciparum; conditions: 96 h, Pf infected erythrocytes, D6 strain sensitive to chloroquine, mean ± SD of three independent experiments
Procedure: (§1) The IC50 values were determined as previously described.^[ [32] ^] P. falciparum D6 (Sierra‐Leone) laboratory line, sensitive to most antimalarial drugs, and W2 (Indochina) line, resistant to chloroquine and pyrimethamine, were maintained as previously described^[ [33] ^] in medium consisted of 10.4 g L^−1 RPMI‐1640‐LPLF powder (Gibco BRL), 5.97 g L^−1 HEPES buffer (MP Biomedicals, USA), 2.0 g L^−1 d‐glucose (BDH chemicals, Australia), 0.05 g L^−1 hypoxanthine (Sigma, USA) and 40 mg L^−1 gentamycin (Pfizer, Australia), supplemented with 0.21% NaHCO3 and 10% human plasma prior to use. Red blood cells O (Rh+) type were obtained from the Australian Red Cross Blood Service and added to 4% haematocrit. Cultures were routinely synchronized using D‐sorbitol.^[ [34] ^] To evaluate the antimalarial activity of the ANPs, the ^3H‐hypoxanthine growth inhibition assay was utilized, where the uptake of ^3H‐hypoxanthine by malaria parasites is used as a surrogate marker for parasite growth. For these assays, stock solutions of the tested compounds were made to concentrations of 20–40 mM in DMSO or water and subsequently diluted in hypoxanthine‐free complete media prior to assay. The assays (in 96‐well plate format) were initiated when most parasites (> 90%) were at the early trophozoite (ring) stage. Parasite cultures (100 μL per well) at 0.5% initial parasitemia and 2% hematocrit in hypoxanthine‐free RPMI1640‐LPLF medium were exposed to ten twofold serial dilutions of the compounds and chloroquine (reference drug) for 96 h, with ^3H‐hypoxanthine (0.2 μCi well^−1) added ≈48 h after the beginning of the experiment.
(§2) The ^3H‐hypoxanthine incorporation data were analyzed, and sigmoidal growth inhibition curves were produced by nonlinear regression analysis of the ^3H‐hypoxanthine incorporation data versus log‐transformed concentrations of the compounds using Graphpad Prism V5.0 software (GraphPad Software Inc. USA). […] The IC50 values were based on three independent experiments, with mean ± SD calculated.

P. falciparum W2 = experiment: In vitro antimalarial activity, 3H-hypoxanthine growth inhibition assay, W2 line; assay type: cell-based, Plasmodium falciparum; conditions: 96 h, Pf infected erythrocytes, W2 strain resistant to chloroquine, mean ± SD of three independent experiments
Procedure: as §1, §2

HL-60 = experiment: Cytotoxicity of the prodrug in human cells (CellTiter-Glo 2.0), HL-60; assay type: cell-based; conditions: 10 µM, versus untreated control; mean ± SD
Procedure: (§3) Compound cytotoxicity was evaluated in nontumor human dermal fibroblasts (NHDF), CCRF‐CEM, HL‐60, HeLa, and HepG2 cells. All cell lines were obtained from ATCC (Manassas, VA, USA). The cytotoxicity was assayed using CellTiter‐Glo 2.0 detection reagent (Promega, Madison, USA) according to the manufacturer's protocol. The concentration of prodrug used in this assay was 10 μM. This concentration was chosen as it would more accurately reflect the expected concentration in an in vitro assessment.

NHDF = experiment: Cytotoxicity of the prodrug in human cells (CellTiter-Glo 2.0), NHDF; assay type: cell-based; conditions: 10 µM, versus untreated control; mean ± SD
Procedure: as §3

CCRF-CEM = experiment: Cytotoxicity of the prodrug in human cells (CellTiter-Glo 2.0), CCRF-CEM; assay type: cell-based; conditions: 10 µM, versus untreated control; mean ± SD
Procedure: as §3

HepG2 = experiment: Cytotoxicity of the prodrug in human cells (CellTiter-Glo 2.0), HepG2; assay type: cell-based; conditions: 10 µM, versus untreated control; mean ± SD
Procedure: as §3

HeLa = experiment: Cytotoxicity of the prodrug in human cells (CellTiter-Glo 2.0), HeLa; assay type: cell-based; conditions: 10 µM, versus untreated control; mean ± SD
Procedure: as §3

human HGPRT = target: T1, human HGPRT (Homo sapiens, UniProt P00492); experiment: Determination of Ki values, human HGPRT; assay type: biochemical; conditions: 0.1 M Tris-HCl, 10 mM MgCl2, pH 7.4; guanine 60 μM, variable PRib-PP; mean ± SD of three independent experiments
T1 construct: made in house
T1 sequence (P00492 1-218): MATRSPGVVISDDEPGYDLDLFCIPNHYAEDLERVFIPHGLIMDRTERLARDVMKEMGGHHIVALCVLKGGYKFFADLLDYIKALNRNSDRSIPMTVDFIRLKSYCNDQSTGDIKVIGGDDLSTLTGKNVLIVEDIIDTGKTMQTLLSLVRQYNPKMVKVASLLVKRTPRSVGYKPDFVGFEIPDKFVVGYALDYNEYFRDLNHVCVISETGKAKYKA
Procedure: (§4) The human and Pf enzymes were purified as described previously.^[ [7] ^, [26] ^] All assays were performed in 0.1 M Tris‐HCl, 10 mM MgCl2, pH 7.4. […] The K i was calculated using the equation, v o = Vmax.[S]o/[S]o + K m(app) and K m(app) = K m [1 + [I]/K i ].

PfHGXPRT = target: T2, PfHGXPRT (Plasmodium falciparum, UniProt P20035); experiment: Determination of Ki values, PfHGXPRT; assay type: biochemical; conditions: 0.1 M Tris-HCl, 10 mM MgCl2, pH 7.4; guanine 60 μM, variable PRib-PP; mean ± SD of three independent experiments
T2 construct: made in house
T2 sequence (P20035 1-231): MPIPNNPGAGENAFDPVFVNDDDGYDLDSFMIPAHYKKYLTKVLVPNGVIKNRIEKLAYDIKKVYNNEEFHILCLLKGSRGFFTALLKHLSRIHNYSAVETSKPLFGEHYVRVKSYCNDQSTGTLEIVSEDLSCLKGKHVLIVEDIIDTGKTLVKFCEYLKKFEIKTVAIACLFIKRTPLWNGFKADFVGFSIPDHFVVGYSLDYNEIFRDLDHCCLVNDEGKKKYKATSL
Procedure: as §4

[1] = Plasmodium falciparum, D6, Erythrocyte
[2] = Plasmodium falciparum, W2, Erythrocyte

CCOC(=O)[C@H](Cc1ccccc1)NP(=O)(CCOCC(OCCOCP(=O)(N[C@@H](Cc1ccccc1)C(=O)OCC)N[C@@H](Cc1ccccc1)C(=O)OCC)n1cnc2c(=O)[nH]c(N)nc21)N[C@@H](Cc1ccccc1)C(=O)OCC (mixture of isomers) [19b, Tetra‐(L‐phenylalaninate ethyl ester) prodrug of (2‐(2‐(guanin‐9‐yl)‐2‐(2‐(phosphonatomethoxy)ethoxy)ethoxy)ethyl)phosphonic acid]
IC50 (P. falciparum D6; [1]): 4.3 ± 0.7 µM
IC50 (P. falciparum W2; [2]): 8.8 ± 2.6 µM

CCOC(=O)[C@H](Cc1ccccc1)NP(=O)(COCC(OCCO)n1cnc2c(=O)[nH]c(N)nc21)N[C@@H](Cc1ccccc1)C(=O)OCC (mixture of isomers) [21b, Bis‐(L‐phenylalaninate ethyl ester) prodrug of ((2‐(guanin‐9‐yl)‐2‐(2‐hydroxyethoxy)ethoxy)methyl)phosphonic acid]
Viability HL-60 (HL-60): 100 ± 2 % control
IC50 (P. falciparum D6; [1]): 84 ± 10 µM
Viability NHDF (NHDF): 94 ± 8 % control
Viability CCRF-CEM (CCRF-CEM): 97 ± 1 % control
IC50 (P. falciparum W2; [2]): 79 ± 8 µM
Viability HepG2 (HepG2): 93 ± 4 % control
Viability HeLa (HeLa): 91 ± 2 % control

O=c1[nH]cnc2c1ncn2C(COCCP(=O)(O)O)OCCOCP(=O)(O)O (stereo not shown) [18a, Sodium salt of (2‐(2‐(hypoxanthin‐9‐yl)‐2‐(2‐(phosphonatomethoxy)ethoxy)ethoxy)ethyl)phosphonic acid]
Ki (human HGPRT): > 60 µM
Ki (PfHGXPRT): 5 ± 1 µM

Nc1nc2c(ncn2C(COCCP(=O)(O)O)OCCOCP(=O)(O)O)c(=O)[nH]1 (stereo not shown) [18b, Sodium salt of (2‐(2‐(guanin‐9‐yl)‐2‐(2‐(phosphonatomethoxy)ethoxy)ethoxy)ethyl)phosphonic acid]
Ki (human HGPRT): 0.7 ± 0.4 µM
Ki (PfHGXPRT): 1 ± 0.2 µM

CCOC(=O)[C@H](Cc1ccccc1)NP(=O)(CCOCC(OCCOCP(=O)(N[C@@H](Cc1ccccc1)C(=O)OCC)N[C@@H](Cc1ccccc1)C(=O)OCC)n1cnc2c(=O)[nH]cnc21)N[C@@H](Cc1ccccc1)C(=O)OCC (stereo partly shown) [19a, Tetra‐(L‐phenylalaninate ethyl ester) prodrug of (2‐(2‐(hypoxanthin‐9‐yl)‐2‐(2‐(phosphonatomethoxy)ethoxy)ethoxy)ethyl)phosphonic acid]
Viability HL-60 (HL-60): 112 ± 1 % control
IC50 (P. falciparum D6): 2.1 ± 0.2 µM
IC50 (P. falciparum D6; [1]): 2 µM
Viability NHDF (NHDF): 114 ± 5 % control
Viability CCRF-CEM (CCRF-CEM): 106 ± 1 % control
IC50 (P. falciparum W2): 3.4 ± 1.1 µM
IC50 (P. falciparum W2; [2]): 3 µM
Viability HepG2 (HepG2): 116 ± 1 % control
Viability HeLa (HeLa): 105 ± 1 % control

O=c1[nH]cnc2c1ncn2C(COCP(=O)(O)O)OCCO (stereo not shown) [20a, Sodium salt of ((2‐(2‐hydroxyethoxy)‐2‐(hypoxanthin‐9‐yl)ethoxy)methyl) phosphonic acid]
Ki (human HGPRT): 160 µM

Nc1nc2c(ncn2C(COCP(=O)(O)O)OCCO)c(=O)[nH]1 (stereo not shown) [20b, Sodium salt of ((2‐(guanin‐9‐yl)‐2‐(2‐hydroxyethoxy)ethoxy)methyl)phosphonic acid]
Ki (human HGPRT): 30 ± 5 µM
Ki (PfHGXPRT): 5 ± 1 µM

O=c1[nH]cnc2c1ncn2C(COCCP(=O)(O)O)OCCO (stereo not shown) [20c, Sodium salt of (2‐(2‐(2‐hydroxyethoxy)‐2‐(hypoxanthin‐9‐yl)ethoxy)ethyl)phosphonic acid]
Ki (human HGPRT): > 20 µM
Ki (PfHGXPRT): 10 ± 5 µM

Nc1nc2c(ncn2C(COCCP(=O)(O)O)OCCO)c(=O)[nH]1 (stereo not shown) [20d, Sodium salt of (2‐(2‐(2‐hydroxyethoxy)‐2‐(guanin‐9‐yl)ethoxy)ethyl)phosphonic acid]
Ki (human HGPRT): 2.5 ± 0.4 µM
Ki (PfHGXPRT): 0.4 ± 0.1 µM

O=c1[nH]c(Cl)nc2c1ncn2C(COCCP(=O)(O)O)OCCO (stereo not shown) [20e, Sodium salt of (2‐(2‐(2‐chlorohypoxanthin‐9‐yl)‐2‐(2‐hydroxyethoxy)ethoxy)ethyl)phosphonic acid]
Ki (human HGPRT): > 60 µM
Ki (PfHGXPRT): 50 ± 10 µM

O=c1[nH]cnc2c1cnn2C(COCCP(=O)(O)O)OCCO (stereo not shown) [20f, Sodium salt of (2‐(2‐(2‐hydroxyethoxy)‐2‐(4‐oxo‐4,5‐dihydro‐1H‐pyrazolo[3,4‐d]pyrimidin‐1‐yl)ethoxy)ethyl)phosphonic acid]
Ki (human HGPRT): > 60 µM
Ki (PfHGXPRT): > 60 µM

O=c1[nH]cnc2c1ncn2C(CCOCP(=O)(O)O)OCCCO (stereo not shown) [20g, Sodium salt of ((3‐(3‐hydroxypropoxy)‐3‐(hypoxanthin‐9‐yl)propoxy)methyl)phosphonic acid]
Ki (human HGPRT): > 60 µM
Ki (PfHGXPRT): > 60 µM

Nc1nc2c(ncn2C(CCOCP(=O)(O)O)OCCCO)c(=O)[nH]1 (stereo not shown) [20h, Sodium salt of ((3‐(guanin‐9‐yl)‐3‐(3‐hydroxypropoxy)propoxy)methyl)phosphonic acid]
Ki (human HGPRT): 10 ± 3 µM
Ki (PfHGXPRT): > 60 µM

O=c1[nH]cnc2c1cnn2C(CCOCP(=O)(O)O)OCCCO (stereo not shown) [20i, Sodium salt of ((3‐(3‐hydroxypropoxy)‐3‐(4‐oxo‐4,5‐dihydro‐1H‐pyrazolo[3,4‐d]pyrimidin‐1‐yl)propoxy)methyl)phosphonic acid]
Ki (human HGPRT): > 60 µM
Ki (PfHGXPRT): > 60 µM

CCOC(=O)[C@H](Cc1ccccc1)NP(=O)(COCC(OCCO)n1cnc2c(=O)[nH]cnc21)N[C@@H](Cc1ccccc1)C(=O)OCC (stereo partly shown) [21a, Bis‐(L‐phenylalaninate ethyl ester) prodrug of ((2‐(2‐hydroxyethoxy)‐2‐(hypoxanthin‐9‐yl)ethoxy)methyl)phosphonic acid]
Viability HL-60 (HL-60): 103 ± 0 % control
IC50 (P. falciparum D6; [1]): 34 ± 6 µM
Viability NHDF (NHDF): 104 ± 8 % control
Viability CCRF-CEM (CCRF-CEM): 101 ± 2 % control
IC50 (P. falciparum W2; [2]): 71 ± 1 µM
Viability HepG2 (HepG2): 98 ± 3 % control
Viability HeLa (HeLa): 97 ± 2 % control

CCOC(=O)[C@H](Cc1ccccc1)NP(=O)(CCOCC(OCCO)n1cnc2c(=O)[nH]cnc21)N[C@@H](Cc1ccccc1)C(=O)OCC (stereo partly shown) [21c, Bis‐(L‐phenylalaninate ethyl ester) prodrug of (2‐(2‐(2‐hydroxyethoxy)‐2‐(hypoxanthin‐9‐yl)ethoxy)ethyl) phosphonic acid]
Viability HL-60 (HL-60): 104 ± 2 % control
IC50 (P. falciparum D6; [1]): 41 ± 5 µM
Viability NHDF (NHDF): 102 ± 6 % control
Viability CCRF-CEM (CCRF-CEM): 100 ± 2 % control
IC50 (P. falciparum W2; [2]): 14 ± 2 µM
Viability HepG2 (HepG2): 97 ± 2 % control
Viability HeLa (HeLa): 97 ± 2 % control

CCOC(COCCP(=O)(O)O)n1cnc2c(=O)[nH]c(N)nc21 (stereo not shown) [compound 25, Sodium salt of (2‐(2‐(guanin‐9‐yl)‐2‐ethoxyethoxy)ethyl)phosphonic acid]
Ki (human HGPRT): 3.7 ± 0.9 µM
Ki (PfHGXPRT): 3 ± 0.5 µM
